Calls of active or inactive are those of the source. The calls are words filed in the database; no cut-off is given here.
What was measured:
Staphylococcus aureus [1] = experiment: Inhibition of biofilm formation in Staphylococcus aureus ATCC 29213 at MIC incubated for 24 hrs by scanning electron microscopy; assay type: functional, organism-based
Streptococcus mutans = experiment: Antibacterial activity against Streptococcus mutans UA159 assessed as reduction in bacterial growth incubated for 24 hrs by serial dilution method; assay type: functional; settings: UA159, 24 h, read-out: MIC
Staphylococcus aureus [2] = experiment: Antibacterial activity against methicillin-resistant Staphylococcus aureus ATCC 18466 assessed as reduction in bacterial growth incubated for 24 hrs by serial dilution method; assay type: functional; settings: ATCC 18466, 24 h, read-out: MIC
Candida albicans = experiment: Antifungal activity against Candida albicans ATCC 5314 assessed as reduction in fungal growth incubated for 24 hrs by serial dilution method; assay type: functional; settings: ATCC 5314, 24 h, read-out: MIC
Streptococcus sanguinis = experiment: Antibacterial activity against Streptococcus sanguinis ATCC 10556 assessed as reduction in bacterial growth incubated for 24 hrs by serial dilution method; assay type: functional; settings: ATCC 10556, 24 h, read-out: MIC
Staphylococcus aureus [3] = experiment: Antibacterial activity against Staphylococcus aureus ATCC 25923 assessed as reduction in bacterial growth at MIC measured after 15 passages; assay type: functional
Staphylococcus aureus [4] = experiment: Antibacterial activity against Staphylococcus aureus ATCC 29213 assessed as reduction in bacterial growth at MIC measured after 15 passages; assay type: functional
Staphylococcus aureus [5] = experiment: Inhibition of biofilm formation in Staphylococcus aureus ATCC 25923 at MIC incubated for 24 hrs by scanning electron microscopy; assay type: functional, organism-based
Staphylococcus aureus [6] = experiment: Inhibition of biofilm formation in methicillin-resistant Staphylococcus aureus ATCC 19498 at MIC incubated for 24 hrs by scanning electron microscopy; assay type: functional, organism-based
Staphylococcus aureus [7] = experiment: Inhibition of biofilm formation in methicillin-resistant Staphylococcus aureus ATCC 18466 at MIC incubated for 24 hrs by scanning electron microscopy; assay type: functional, organism-based
Staphylococcus aureus [8] = experiment: Disruption of membrane integrity in Staphylococcus aureus ATCC 29213 assessed as decrease in cell volume at MIC incubated for 24 hrs by scanning electron microscopy; assay type: functional, organism-based
Staphylococcus aureus [9] = experiment: Disruption of membrane integrity in Staphylococcus aureus ATCC 29213 assessed as cell membrane damage at MIC incubated for 24 hrs by scanning electron microscopy; assay type: functional, organism-based
Staphylococcus aureus [10] = experiment: Disruption of membrane integrity in Staphylococcus aureus ATCC 29213 assessed as extravasation of cytoplasmic content at MIC incubated for 24 hrs by scanning electron microscopy; assay type: functional, organism-based
Staphylococcus aureus [11] = experiment: Disruption of membrane integrity in Staphylococcus aureus ATCC 29213 assessed as invagination of cell membrane at MIC incubated for 24 hrs by scanning electron microscopy; assay type: functional, organism-based
Staphylococcus aureus [12] = experiment: Disruption of membrane integrity in Staphylococcus aureus ATCC 29213 assessed as perforation of cell membrane at MIC incubated for 24 hrs by scanning electron microscopy; assay type: functional, organism-based
Staphylococcus aureus [13] = experiment: Disruption of membrane integrity in Staphylococcus aureus ATCC 25923 assessed as decrease in cell volume at MIC incubated for 24 hrs by scanning electron microscopy; assay type: functional, organism-based
Staphylococcus aureus [14] = experiment: Disruption of membrane integrity in Staphylococcus aureus ATCC 25923 assessed as cell membrane damage at MIC incubated for 24 hrs by scanning electron microscopy; assay type: functional, organism-based
Staphylococcus aureus [15] = experiment: Disruption of membrane integrity in Staphylococcus aureus ATCC 25923 assessed as invagination of cell membrane at MIC incubated for 24 hrs by scanning electron microscopy; assay type: functional, organism-based
Staphylococcus aureus [16] = experiment: Disruption of membrane integrity in Staphylococcus aureus ATCC 25923 assessed as shrinking of cell membrane at MIC incubated for 24 hrs by scanning electron microscopy; assay type: functional, organism-based
Staphylococcus aureus [17] = experiment: Disruption of membrane integrity in methicillin-resistant Staphylococcus aureus ATCC 19498 assessed as decrease in cell volume at MIC incubated for 24 hrs by scanning electron microscopy; assay type: functional, organism-based
Staphylococcus aureus [18] = experiment: Disruption of membrane integrity in methicillin-resistant Staphylococcus aureus ATCC 19498 assessed as cell membrane damage at MIC incubated for 24 hrs by scanning electron microscopy; assay type: functional, organism-based
Staphylococcus aureus [19] = experiment: Disruption of membrane integrity in methicillin-resistant Staphylococcus aureus ATCC 19498 assessed as invagination of cell membrane at MIC incubated for 24 hrs by scanning electron microscopy; assay type: functional, organism-based
Staphylococcus aureus [20] = experiment: Disruption of membrane integrity in methicillin-resistant Staphylococcus aureus ATCC 19498 assessed as shrinking of cell membrane at MIC incubated for 24 hrs by scanning electron microscopy; assay type: functional, organism-based
Staphylococcus aureus [21] = experiment: Disruption of membrane integrity in methicillin-resistant Staphylococcus aureus ATCC 19498 assessed as perforation of cell membrane at MIC incubated for 24 hrs by scanning electron microscopy; assay type: functional, organism-based
Staphylococcus aureus [22] = experiment: Disruption of membrane integrity in methicillin-resistant Staphylococcus aureus ATCC 18466 assessed as shrinking of cell membrane at MIC incubated for 24 hrs by scanning electron microscopy; assay type: functional, organism-based
Staphylococcus aureus [23] = experiment: Inhibition of biofilm formation in Staphylococcus aureus ATCC 29213 assessed as downregulation of spa gene at MIC incubated for 1 hr by qRT-PCR; assay type: functional, organism-based
Staphylococcus aureus [24] = experiment: Inhibition of biofilm formation in methicillin-resistant Staphylococcus aureus ATCC 18466 assessed as downregulation of spa gene at MIC incubated for 1 hr by qRT-PCR; assay type: functional, organism-based
Staphylococcus aureus [25] = experiment: Inhibition of biofilm formation in Staphylococcus aureus ATCC 29213 assessed as downregulation of hld gene at MIC incubated for 1 hr by qRT-PCR; assay type: functional, organism-based
Staphylococcus aureus [26] = experiment: Inhibition of biofilm formation in Staphylococcus aureus ATCC 25923 assessed as downregulation of hld gene at MIC incubated for 1 hr by qRT-PCR; assay type: functional, organism-based
Staphylococcus aureus [27] = experiment: Inhibition of biofilm formation in Staphylococcus aureus ATCC 29213 assessed as downregulation of […] gene at MIC incubated for 1 hr by qRT-PCR; assay type: functional, organism-based
Staphylococcus aureus [28] = experiment: Inhibition of biofilm formation in Staphylococcus aureus ATCC 25923 assessed as downregulation of […] gene at MIC incubated for 1 hr by qRT-PCR; assay type: functional, organism-based
Staphylococcus aureus [29] = experiment: Inhibition of biofilm formation in methicillin-resistant Staphylococcus aureus ATCC 19498 assessed as downregulation of […] gene at MIC incubated for 1 hr by qRT-PCR; assay type: functional, organism-based
Staphylococcus aureus [30] = experiment: Inhibition of biofilm formation in Staphylococcus aureus ATCC 25923 assessed as downregulation of mecA gene at MIC incubated for 1 hr by qRT-PCR; assay type: functional, organism-based
Staphylococcus aureus [31] = experiment: Inhibition of biofilm formation in methicillin-resistant Staphylococcus aureus ATCC 18466 assessed as downregulation of mecA gene at MIC incubated for 1 hr by qRT-PCR; assay type: functional, organism-based
Erythrocyte = experiment: Hemolytic activity in mouse Erythrocyte assessed as HC10 incubated for 1 hr; assay type: ADME, cell-based
[32] = Hemolytic activity in mouse Erythrocyte assessed as HC50 incubated for 1 hr; assay type: ADME, cell-based; settings: mouse erythrocytes
[33] = Hemolytic activity in mouse Erythrocyte at 640 ug/ml incubated for 1 hr relative to control; assay type: ADME, cell-based; settings: mouse erythrocytes, read-out: %max
[34] = Stability in mouse plasma at 20 uM incubated for 12 hrs by HPLC-MS analysis; assay type: ADME, cell-free
[35] = Stability in mouse plasma at 20 uM incubated for 24 hrs by HPLC-MS analysis; assay type: ADME, cell-free
[36] = Stability in MRSA supernatant at 20 uM incubated for 24 hrs by HPLC-MS analysis; assay type: physicochemical

| Substance | inhibition (Staphylococcus aureus [1]) | MIC (Streptococcus mutans) [mg/L] | MIC (Staphylococcus aureus [2]) [mg/L] | MIC (Candida albicans) [mg/L] | MIC (Streptococcus sanguinis) [mg/L] | Activity (Staphylococcus aureus [3]) | Activity (Staphylococcus aureus [4]) | inhibition (Staphylococcus aureus [5]) | inhibition (Staphylococcus aureus [6]) | inhibition (Staphylococcus aureus [7]) | Activity (Staphylococcus aureus [8]) | Activity (Staphylococcus aureus [9]) | Activity (Staphylococcus aureus [10]) | Activity (Staphylococcus aureus [11]) | Activity (Staphylococcus aureus [12]) | Activity (Staphylococcus aureus [13]) | Activity (Staphylococcus aureus [14]) | Activity (Staphylococcus aureus [15]) | Activity (Staphylococcus aureus [16]) | Activity (Staphylococcus aureus [17]) | other results |
| --- | --- | --- | --- | --- | --- | --- | --- | --- | --- | --- | --- | --- | --- | --- | --- | --- | --- | --- | --- | --- | --- |
| H-YIRKIRRFFKKLKKILKK-NH2 | Active | 64 | 8 | 32 | < 64 | Active | Active | Active | Active | Active | Active | Active | Active | Active | Active | Active | Active | Active | Active | Active | Activity (Staphylococcus aureus [18]): Active; Activity (Staphylococcus aureus [19]): Active; Activity (Staphylococcus aureus [20]): Active; Activity (Staphylococcus aureus [21]): Active; Activity (Staphylococcus aureus [22]): Active; inhibition (Staphylococcus aureus [23]): Active; inhibition (Staphylococcus aureus [24]): Active; inhibition (Staphylococcus aureus [25]): Active; inhibition (Staphylococcus aureus [26]): Active; inhibition (Staphylococcus aureus [27]): Active; inhibition (Staphylococcus aureus [28]): Active; inhibition (Staphylococcus aureus [29]): Active; inhibition (Staphylococcus aureus [30]): inactive; inhibition (Staphylococcus aureus [31]): inactive; HC10 (Erythrocyte): 640 µg/mL; HC50 at 1 h [32]: > 640 µg/mL; hemolysis at 1 h, 640 ug/ml [33]: 10.3%; Stability [34]: Stable; Stability [35]: Unstable; Stability [36]: Stable |
| H-SYERKINRHFKTLKKNLKKK-NH2 | Active | < 64 | 16 | 64 | < 64 | Active | Active | Active | Active | Active | Active | Active | Active | Active | Active | Active | Active | Active | Active | Active | Activity (Staphylococcus aureus [18]): Active; Activity (Staphylococcus aureus [19]): Active; Activity (Staphylococcus aureus [20]): Active; Activity (Staphylococcus aureus [21]): Active; Activity (Staphylococcus aureus [22]): Active; inhibition (Staphylococcus aureus [23]): Active; inhibition (Staphylococcus aureus [24]): Active; inhibition (Staphylococcus aureus [25]): Active; inhibition (Staphylococcus aureus [26]): Active; inhibition (Staphylococcus aureus [27]): Active; inhibition (Staphylococcus aureus [28]): Active; inhibition (Staphylococcus aureus [29]): Active; inhibition (Staphylococcus aureus [30]): inactive; inhibition (Staphylococcus aureus [31]): inactive; HC10 (Erythrocyte): > 640 µg/mL; HC50 at 1 h [32]: > 640 µg/mL; hemolysis at 1 h, 640 ug/ml [33]: 7.06%; Stability [34]: Stable; Stability [35]: Unstable; Stability [36]: Stable |
